Experimental findings from US4668630A, “Stabilized enzymatic composition” (Beckman Instruments, Inc., priority 1984, dated 1987) are described below.

In the experiment the test system is lactate dehydrogenase (LD). In words: LD activity of serial dilution samples on Roche Cobas UV clinical analyzer. The experiment is classed as biochemical, human. The note with it: Table II, 1-20 mg/ml KO2 CCO2 K in LD SEG. As for the experimental part: Aliquots of this base solution were diluted as shown in Table I with a LD SEG solution devoid of KO2 CCO2 K. The LD activity of each of the serial dilution samples was measured on a Roche Cobas brand UV clinical analyzer and the results are set forth in Table II.

Molecules are shown by their SMILES. Counter-ions that a name gives are not always drawn.

Take `O=C(O)C(=O)O` [KO2 CCO2 K, potassium oxalate]: the “effect on LD activity (in words)” value was “inhibition of LD activity”.
